In general, IC50 refers to the concentration needed to halve the response being measured.

In patent US20260132132A1, “3A,4,5,6-TETRAHYDRO-1 H-PYRAZOLO[3,4-C]PYRIDIN-7(7AH)-ONE DERIVATIVES AS FACTOR XIIA INHIBITORS” (KALVISTA PHARMACEUTICALS LIMITED, priority 2022, published 2026) one finds IC50 data, which are given here for 19 compounds.

Experiment [1] concerns the target T1, Human Factor XIIa (hFXIIa) (Homo sapiens, UniProt P00748).
T1 construct: purchased Enzyme Research Laboratories
T1 sequence (P00748 373-615 limits assumed): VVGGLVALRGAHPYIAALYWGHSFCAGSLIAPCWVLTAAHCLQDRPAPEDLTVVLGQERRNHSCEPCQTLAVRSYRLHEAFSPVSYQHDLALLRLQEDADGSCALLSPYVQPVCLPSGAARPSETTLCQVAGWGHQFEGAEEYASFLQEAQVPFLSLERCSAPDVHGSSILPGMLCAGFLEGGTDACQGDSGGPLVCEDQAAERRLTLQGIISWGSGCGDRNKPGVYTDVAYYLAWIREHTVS
T1 sequence (P00748 20-372 partner limits assumed): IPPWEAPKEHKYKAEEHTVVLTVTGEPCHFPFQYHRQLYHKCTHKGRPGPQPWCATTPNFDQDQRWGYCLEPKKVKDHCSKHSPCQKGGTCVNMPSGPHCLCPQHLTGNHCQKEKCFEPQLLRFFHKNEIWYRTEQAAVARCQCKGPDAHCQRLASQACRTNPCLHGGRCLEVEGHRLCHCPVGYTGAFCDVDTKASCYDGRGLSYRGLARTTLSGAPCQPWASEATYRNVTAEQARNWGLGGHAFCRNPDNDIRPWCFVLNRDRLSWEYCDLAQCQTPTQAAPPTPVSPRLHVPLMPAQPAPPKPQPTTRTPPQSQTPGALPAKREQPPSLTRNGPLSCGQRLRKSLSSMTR
Description: Determination of Human Factor XIIa (hFXIIa) inhibition, fluorogenic substrate IC50 assay. Type of experiment: biochemical. Particulars: fluorogenic substrate H-DPro-Phe-Arg-AFC at Km, 25° C., read-out: Human FXIIa IC50. The method, then: Determination of Human Factor XIIa (hFXIIa) inhibition
The Km for the cleavage of the substrate by hFXIIa was determined by standard transformation of the Michaelis-Menten equation, with subsequent inhibition assays performed at substrate Km concentration.

In experiment [2] the target is FXa (Homo sapiens, UniProt P00742). The experiment can be described thus: Related protease inhibition: FXa, fluorogenic substrate. Type of experiment: biochemical. Particulars: fluorogenic substrate at Km, 25° C.; H1-H3 = % activity at 40 μM. As to the method: Human serine protease enzyme Plasma Kallikrein, KLK1, FXa, Plasmin, Thrombin and Trypsin were assayed for enzymatic activity using an appropriate fluorogenic substrate at Km concentration, FXIa at fixed substrate concentration of 100 μM and various concentrations of the test compound.

Each structure is given as a SMILES string. Some results are limits rather than exact numbers.

FXa, sequence (P00742 235-488 limits assumed): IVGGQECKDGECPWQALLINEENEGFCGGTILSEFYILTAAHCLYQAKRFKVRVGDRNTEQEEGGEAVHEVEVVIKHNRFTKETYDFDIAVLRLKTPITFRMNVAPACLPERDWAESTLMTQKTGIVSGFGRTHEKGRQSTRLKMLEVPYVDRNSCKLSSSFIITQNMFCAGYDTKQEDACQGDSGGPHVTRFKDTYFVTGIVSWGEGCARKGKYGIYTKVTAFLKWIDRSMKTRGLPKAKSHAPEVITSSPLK
FXa, sequence (P00742 41-179 partner limits assumed): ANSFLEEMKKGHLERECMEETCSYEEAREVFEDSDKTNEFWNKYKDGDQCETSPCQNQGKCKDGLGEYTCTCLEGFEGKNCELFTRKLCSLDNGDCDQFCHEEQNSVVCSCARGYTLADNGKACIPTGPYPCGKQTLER

As for `O=C(NCc1ccccc1)c1nn(-c2cccc(Cl)c2)c2c1CCN(c1ccc3c(c1)CN(C1CC1)CC3)C2=O` [Example 1029, N-benzyl-1-(3-chlorophenyl)-6-(2-cyclopropyl-1,2,3,4-tetrahydroisoquinolin-7-yl)-7-oxo-4,5,6,7-tetrahydro-1H-pyrazolo[3,4-c]pyridine-3-carboxamide], the concentration for half-maximal inhibition (IC50) is 300 to 1000 nM in experiment [1] and above 100000 nM in experiment [2].
For `CCN1Cc2cc(N3CCc4c(C(=O)NCc5cnccc5C)nn(-c5cccc(Cl)c5)c4C3=O)ccc2[C@@H](C)C1` [Example 1158, (R)-1-(3-chlorophenyl)-6-(2-ethyl-4-methyl-1,2,3,4-tetrahydroisoquinolin-7-yl)-N-((4-methylpyridin-3-yl)methyl)-7-oxo-4,5,6,7-tetrahydro-1H-pyrazolo[3,4-c]pyridine-3-carboxamide], the IC50 in experiment [1] was in the range of 10 to 100 nM; in experiment [2] it was 10000 to 40000 nM.
For the compound `O=C(NCc1ccn(C2CC2)n1)c1nn(-c2cccc(Cl)c2)c2c1CCN(c1ccc3c(c1)CN(CCO)CC3)C2=O` [Example 1146, 1-(3-chlorophenyl)-N-((1-cyclopropyl-1H-pyrazol-3-yl)methyl)-6-(2-(2-hydroxyethyl)-1,2,3,4-tetrahydroisoquinolin-7-yl)-7-oxo-4,5,6,7-tetrahydro-1H-pyrazolo[3,4-c]pyridine-3-carboxamide], the 50% inhibitory concentration (IC50) in experiment [1] was 10 to 100 nM; in experiment [2], 10000 to 40000 nM.
Take `CC(=O)N1CCc2ccc(N3CCc4c(C(=O)NCc5cc(C)n(C)n5)nn(-c5cccc(Cl)c5)c4C3=O)cc21` [Example 1304, 6-(1-acetylindolin-6-yl)-1-(3-chlorophenyl)-N-((1,5-dimethyl-1H-pyrazol-3-yl)methyl)-7-oxo-4,5,6,7-tetrahydro-1H-pyrazolo[3,4-c]pyridine-3-carboxamide]: the IC50 was 300 to 1000 nM in experiment [1] and above 40000 nM in experiment [2].
Take `O=C(NCC1CC1)c1nn(-c2cccc(Cl)c2)c2c1CCN(c1cc(F)c3c(c1)CN(CCO)CC3)C2=O` [Example 1122, 1-(3-Chlorophenyl)-N-(cyclopropylmethyl)-6-(5-fluoro-2-(2-hydroxyethyl)-1,2,3,4-tetrahydroisoquinolin-7-yl)-7-oxo-4,5,6,7-tetrahydro-1H-pyrazolo[3,4-c]pyridine-3-carboxamide]: the results for the concentration for half-maximal inhibition (IC50) in experiment [1] and in experiment [2] were 100 to 300 nM and above 40000 nM, respectively.
As to `Cc1cn(C)nc1CNC(=O)c1nn(-c2cccc(Cl)c2)c2c(=O)n(-c3ccc4c(c3)CN(C)CC4)c(C)nc12` [Example 3006, 1-(3-chlorophenyl)-N-((1,4-dimethyl-1H-pyrazol-3-yl)methyl)-5-methyl-6-(2-methyl-1,2,3,4-tetrahydroisoquinolin-7-yl)-7-oxo-6,7-dihydro-1H-pyrazolo[4,3-d]pyrimidine-3-carboxamide], the IC50 fell in the range of 10 to 100 nM in experiment [1] and 1000 to 3000 nM in experiment [2].
Taken in the same sequence, the figures for `O=C(NCc1cc(C2CC2)n[nH]1)c1nn(-c2cccc(Cl)c2)c2c1CCN(c1cccc(CN3CCCCC3)c1)C2=O` [Example 1237, 1-(3-chlorophenyl)-N-((3-cyclopropyl-1H-pyrazol-5-yl)methyl)-7-oxo-6-(3-(piperidin-1-ylmethyl)phenyl)-4,5,6,7-tetrahydro-1H-pyrazolo[3,4-c]pyridine-3-carboxamide] were 100 to 300 nM and above 40000 nM.
Take `CN1CCc2ccc(N3CCc4c(C(=O)NCc5cc(C6CC6)n[nH]5)nn(-c5cccc(Cl)c5)c4C3=O)cc2C1=O` [Example 1231, 1-(3-chlorophenyl)-N-((3-cyclopropyl-1H-pyrazol-5-yl)methyl)-6-(2-methyl-1-oxo-1,2,3,4-tetrahydroisoquinolin-7-yl)-7-oxo-4,5,6,7-tetrahydro-1H-pyrazolo[3,4-c]pyridine-3-carboxamide]: the 50% inhibitory concentration (IC50) in experiment [1] was 100 to 300 nM; in experiment [2], above 40000 nM.
Take `Cc1cc(CNC(=O)c2nn(-c3cccc(Cl)c3)c3c2CCN(c2ccc4c(c2)C(=O)N(C)[C@H](CO)CO4)C3=O)nn1C` [Example 1351, (R)-1-(3-chlorophenyl)-N-((1,5-dimethyl-1H-pyrazol-3-yl)methyl)-6-(3-(hydroxymethyl)-4-methyl-5-oxo-2,3,4,5-tetrahydrobenzo[f][1,4]oxazepin-7-yl)-7-oxo-4,5,6,7-tetrahydro-1H-pyrazolo[3,4-c]pyridine-3-carboxamide]: the IC50 is 3000 to 10000 nM in experiment [1] and above 40000 nM in experiment [2].
Taken in the same sequence, the figures for `Cc1c[nH]nc1CNC(=O)c1nn(-c2cccc(Cl)c2)c2c1CCN(c1ccc3c(c1)C(=O)N(C)CC3)C2=O` [Example 1248, 1-(3-chlorophenyl)-6-(2-methyl-1-oxo-1,2,3,4-tetrahydroisoquinolin-7-yl)-N-((4-methyl-1H-pyrazol-3-yl)methyl)-7-oxo-4,5,6,7-tetrahydro-1H-pyrazolo[3,4-c]pyridine-3-carboxamide] were 100 to 300 nM and 10000 to 40000 nM.
Taken in the same sequence, the figures for `Cc1ccncc1COCc1nn(-c2cccc(Cl)c2)c2c1CCN(c1ccc3c(c1)C(=O)N(C)CC3)C2=O` [Example 1356, 7-(1-(3-chlorophenyl)-3-(((4-methylpyridin-3-yl)methoxy)methyl)-7-oxo-1,4,5,7-tetrahydro-6H-pyrazolo[3,4-c]pyridin-6-yl)-2-methyl-3,4-dihydroisoquinolin-1(2H)-one] were 1000 to 3000 nM and 3000 to 10000 nM.
On to `CN1CCc2ccc(N3CCc4c(C(=O)NO)nn(-c5cccc(Cl)c5)c4C3=O)cc2C1=O` [Example 1347, 1-(3-chlorophenyl)-N-hydroxy-6-(2-methyl-1-oxo-1,2,3,4-tetrahydroisoquinolin-7-yl)-7-oxo-4,5,6,7-tetrahydro-1H-pyrazolo[3,4-c]pyridine-3-carboxamide], for which the 50% inhibitory concentration (IC50) in experiment [1] is 300 to 1000 nM; in experiment [2], 3000 to 10000 nM.
As for `CCNC(=O)c1nn(-c2cccc(Cl)c2)c2c1CCN(c1ccc3c(c1)CN(C)CC3)C2=O` [Example 1014, 1-(3-chlorophenyl)-N-ethyl-6-(2-methyl-1,2,3,4-tetrahydroisoquinolin-7-yl)-7-oxo-4,5,6,7-tetrahydro-1H-pyrazolo[3,4-c]pyridine-3-carboxamide], the IC50 lay in the range of 300 to 1000 nM in experiment [1] and 10000 to 40000 nM in experiment [2].
The like results for `Cc1ncc(CNC(=O)c2nn(-c3cccc(Cl)c3)c3c2CCN(c2ccc4c(c2)C(=O)N(C)CC4)C3=O)s1` [Example 1193, 1-(3-chlorophenyl)-6-(2-methyl-1-oxo-1,2,3,4-tetrahydroisoquinolin-7-yl)-N-((2-methylthiazol-5-yl)methyl)-7-oxo-4,5,6,7-tetrahydro-1H-pyrazolo[3,4-c]pyridine-3-carboxamide] were, in that order, 100 to 300 nM and above 40000 nM.
Regarding `Cc1cc(CNC(=O)c2nn(-c3cccc(Cl)c3)c3c2CCN(c2ccc4c(c2)C(=O)N(C)CCC4)C3=O)nn1C` [Example 1238, 1-(3-Chlorophenyl)-N-[(1,5-dimethylpyrazol-3-yl)methyl]-6-(2-methyl-1-oxo-4,5-dihydro-3H-2-benzazepin-8-yl)-7-oxo-4,5-dihydropyrazolo[3,4-c]pyridine-3-carboxamide], the IC50 in experiment [1] lay in the range of 100 to 300 nM; in experiment [2] it was 3000 to 10000 nM.
The like results for `CCN1CCc2ccc(N3CCc4c(C(=O)NC5CCOCC5)nn(-c5cccc(Cl)c5)c4C3=O)cc2C1` [Example 1085, 1-(3-chlorophenyl)-6-(2-ethyl-1,2,3,4-tetrahydroisoquinolin-7-yl)-7-oxo-N-(tetrahydro-2H-pyran-4-yl)-4,5,6,7-tetrahydro-1H-pyrazolo[3,4-c]pyridine-3-carboxamide] were, in that order, 100 to 300 nM and above 40000 nM.
As for `Cc1cc(CNC(=O)c2nn(-c3cccc(Cl)c3)c3c2CCN(c2ccc4c(c2)C(=O)N(C)CCO4)C3=O)nn1C` [Example 1319, 1-(3-chlorophenyl)-N-((1,5-dimethyl-1H-pyrazol-3-yl)methyl)-6-(4-methyl-5-oxo-2,3,4,5-tetrahydrobenzo[f][1,4]oxazepin-7-yl)-7-oxo-4,5,6,7-tetrahydro-1H-pyrazolo[3,4-c]pyridine-3-carboxamide], the half-maximal inhibitory concentration (IC50) was 10 to 100 nM in experiment [1] and 1000 to 3000 nM in experiment [2].
Take `C[C@H](CO)NC(=O)c1nn(-c2cccc(Cl)c2)c2c1CCN(c1ccc3c(c1)C(=O)N(C)CC3)C2=O` [Example 1337, (R)-1-(3-chlorophenyl)-N-(1-hydroxypropan-2-yl)-6-(2-methyl-1-oxo-1,2,3,4-tetrahydroisoquinolin-7-yl)-7-oxo-4,5,6,7-tetrahydro-1H-pyrazolo[3,4-c]pyridine-3-carboxamide]: the IC50 in experiment [1] is 300 to 1000 nM; in experiment [2], above 40000 nM.
Taken in the same sequence, the figures for `CN1CCc2ccc(N3CCc4c(C(=O)N[C@@H]5CCOC5)nn(-c5cccc(Cl)c5)c4C3=O)cc2C1=O` [Example 1338, (R)-1-(3-chlorophenyl)-6-(2-methyl-1-oxo-1,2,3,4-tetrahydroisoquinolin-7-yl)-7-oxo-N-(tetrahydrofuran-3-yl)-4,5,6,7-tetrahydro-1H-pyrazolo[3,4-c]pyridine-3-carboxamide] were 300 to 1000 nM and above 40000 nM.
